From patent US20250152574A1 (BIOGEN MA INC., priority 2022, published 2025)

Each molecule was assayed against T1, EBP (Homo sapiens, UniProt Q15125) (assay: EBP Functional Assay (EBP immunoaffinity LC-MS assay)). Details: HEK293T cells as source of EBP enzyme; substrate zymosterol-d5, 37° C. for 4 h; percent conversion to dehydrolathosterol-d5 by LC-APCI MRM MS.
T1 construct: HEK293T cells were utilized as the source of EBP enzyme; endogenous in cells; host or cells: HEK293T
T1 sequence (Q15125 whole entry): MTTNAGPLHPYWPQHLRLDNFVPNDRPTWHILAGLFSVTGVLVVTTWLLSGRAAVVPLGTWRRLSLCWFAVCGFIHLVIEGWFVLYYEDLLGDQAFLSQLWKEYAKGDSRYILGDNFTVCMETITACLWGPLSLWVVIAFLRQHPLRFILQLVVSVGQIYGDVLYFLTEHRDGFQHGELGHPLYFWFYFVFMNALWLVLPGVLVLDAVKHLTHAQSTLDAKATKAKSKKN
Format: biochemical
Experimental: The EBP immunoaffinity (IA) LC-MS assay measures the potency of small molecule inhibitors of EBP by quantifying their concentration-dependent changes in the enzyme's substrate and product using liquid chromatography atmospheric pressure chemical ionization multiple reaction monitoring mass spectrometry (LC-APCI MRM MS). HEK293T cells were utilized as the source of EBP enzyme. The enzyme was incubated with the small molecule inhibitors at variable concentrations for 30 min. Deuterated form of EBP substrate, zymosterol-d5 (Avanti Polar Lipids, Cat #700068P-1 mg), was then added and the plate was incubated at 37° C. for 4 h. Finally, the sterol isomers were extracted and injected to LC-APCI MRM MS. MRM transition used for the quantification for both zymosterol and […] (substrate and product of EBP enzymatic reaction, respectively) is 372.3-203.2, CE 30 and DP 80 in positive ion mode. Percent conversion of the zymosterol-d5 to dehydrolathosterol-d5 was used to derive IC50 curves. Tasin-1 (1′-[(4-Methoxyphenyl)sulfonyl]-4-methyl-1,4′-bipiperidine, CAS 792927-06-1) was used as the reference small molecule inhibitor.
Percent conversion versus the compound concentration data were fit to the following 4-parameter logistic model to generate IC50 curves: […]
`O=S(=O)(c1cc(F)cc(F)c1)N1CCC2(CC1)CC(N1CC3(COC3)C1)CO2` (racemic) [Example 118, rac-8-((3,5-difluorophenyl)sulfonyl)-3-(2-oxa-6-azaspiro[3.3]heptan-6-yl)-1-oxa-8-azaspiro[4.5]decane] was tested, and the IC50 was 100 to 250 nM.
`Cn1nc(C(F)(F)F)cc1S(=O)(=O)N1CCC2(CC1)CC(N1CCOCC1)CO2` (single isomer, unassigned) [Example 7, (R)- or (S)-8-((1-methyl-3-(trifluoromethyl)-1H-pyrazol-5-yl)sulfonyl)-3-morpholino-1-oxa-8-azaspiro[4.5]decane] was tested, and the IC50 was 250 to 1500 nM.
`Cc1ccc(C#N)cc1S(=O)(=O)N1CCC2(CC1)C[C@H](N1CCOCC1)CO2` (single isomer, unassigned) [Example 15b] gave an IC50 of 250 to 1500 nM.
`Cc1cc(S(=O)(=O)N2CCC3(CC[C@@H](N4CCOCC4)C3)CC2)n(C)n1` (single isomer, unassigned) [Example 22a] was tested, and the IC50 was 250 to 1500 nM.
`Cc1cc(S(=O)(=O)N2CCC3(CC[C@H](N4CCOCC4)C3)CC2)n(C)n1` (single isomer, unassigned) [Example 22b] was tested, and the IC50 was 100 to 250 nM.
Work on `O=S(=O)(c1ccc(OC(F)F)cc1)N1CCC2(CC1)C[C@H](N1CC[C@]3(CCOC3)C1)CO2` (single isomer, unassigned) [Example 30b] yielded an IC50 of 250 to 1500 nM.
`Cc1ccc(S(=O)(=O)N2CCC3(CC2)C[C@@H](N2CC(O)C2)CO3)c(Cl)c1` (single isomer, unassigned) [Example 53a] showed an IC50 of under 100 nM.
`Cc1ccc(S(=O)(=O)N2CCC3(CC2)C[C@H](N2CC(O)C2)CO3)c(Cl)c1` (single isomer, unassigned) [Example 53b] gave an IC50 of 100 to 250 nM.
Work on `Cn1nc(C2CC2)cc1S(=O)(=O)N1CCC2(CC1)C[C@@H](N1CC3(COC3)C1)CO2` (single isomer, unassigned) [Example 57a] yielded an IC50 of 250 to 1500 nM.
`Cn1nc(C2CC2)cc1S(=O)(=O)N1CCC2(CC1)C[C@H](N1CC3(COC3)C1)CO2` (single isomer, unassigned) [Example 57b] gave an IC50 of 250 to 1500 nM.
Molecule `COc1ncc(Cl)cc1S(=O)(=O)N1CCC2(CC1)C[C@@H](N1CC3(COC3)C1)CO2` (single isomer, unassigned) [Example 63a] has an IC50 of under 100 nM.
For `Cc1cc(S(=O)(=O)N2CCC3(CC[C@@H](N4CC5(COC5)C4)C3)CC2)n(C)n1` (single isomer, unassigned) [Example 68a], the IC50 was 100 to 250 nM.
Work on `Cc1cc(S(=O)(=O)N2CCC3(CC[C@H](N4CC5(COC5)C4)C3)CC2)n(C)n1` (single isomer, unassigned) [Example 68b] yielded an IC50 of 100 to 250 nM.
`Cc1cc(S(=O)(=O)N2CCC3(CC2)C[C@H](N2CC[C@@]4(CCOC4)C2)CO3)n(C)n1` (single isomer, unassigned) [Example 72a] was tested, and the IC50 was 100 to 250 nM.
`N#Cc1cc(F)cc(S(=O)(=O)N2CCC3(CC[C@@H](N4CC5(COC5)C4)C3)CC2)c1` (single isomer, unassigned) [Example 85a] gave an IC50 of 100 to 250 nM.
Molecule `N#Cc1cc(F)cc(S(=O)(=O)N2CCC3(CC[C@H](N4CC5(COC5)C4)C3)CC2)c1` (single isomer, unassigned) [Example 85b] has an IC50 of under 100 nM.
For `O=S(=O)(c1ccc(OC(F)F)cc1)N1CCC2(CC[C@@H](N3C[C@H]4C[C@@H]3CO4)C2)CC1` (single isomer, unassigned) [Example 86a], the IC50 was under 100 nM.
With `O=S(=O)(c1ccc(OC(F)F)cc1)N1CCC2(CC[C@H](N3C[C@H]4C[C@@H]3CO4)C2)CC1` (single isomer, unassigned) [Example 86b] the IC50 was under 100 nM.
`O=S(=O)(c1ccc(OC(F)F)cc1)N1CCC2(CC[C@@H](N3C[C@@H]4C[C@H]3CO4)C2)CC1` (single isomer, unassigned) [Example 90a] was tested, and the IC50 was 100 to 250 nM.
With `O=S(=O)(c1ccc(OC(F)F)cc1)N1CCC2(CC[C@H](N3C[C@@H]4C[C@H]3CO4)C2)CC1` (single isomer, unassigned) [Example 90b] the IC50 was under 100 nM.
In the case of `O=S(=O)(c1cc(F)cc(F)c1)N1CCC2(CC1)C[C@H](N1CC3(COC3)C1)CO2` (single isomer, unassigned) [Example 119a], the IC50 is reported as under 100 nM.
